{"source": "paper PMC8418751", "about": "“3D-printing magnesium–polycaprolactone loaded with melatonin inhibits the development of osteosarcoma by regulating cell-in-cell structures” (Journal of Nanobiotechnology, 2021)", "key": {"[1]": {"experiment": "In vitro release of melatonin (dialysis bag, PBS pH 7.4)", "type": "physicochemical", "conditions": "at 10 h; PBS pH 7.4, 37 °C", "procedure": "Standard curve of melatonin was first draw using PBS (pH = 7.4) as solvent under the wavelength of the maximum absorption peak (278 nm). […] The dialysis bag was then placed in a beaker containing the same pH PBS buffer and was vibrated horizontally in a constant temperature shaker (37 °C ± 0.5 °C) with a vibration frequency of 50 times/min. The release liquid (5 ml) was replaced with same amounts of fresh PBS at selected time intervals. The absorbance value of the solution was measured at 278 nm and the drug release rate was calculated as follow: R(%)=ρnV+Vi∑tn-iρi/MD×100 where R means the cumulative drug release rate (%); n means the number of sampling. ρn represents the mass concentration (g/l) of the drug in the nth release. V represents the total volume of the release liquid. ρi represents the mass concentration (g/l) of the drug in the ith release, Vi represents the volume of the release liquid at the ith sampling and MD means the mass of drug loaded (g)."}, "human OS (U2OS) cells": {"tested_on": "human OS (U2OS) cells", "experiment": "U2OS xenograft in nude mice: OS growth and metastasis", "type": "in vivo, Balb/c nude mice", "conditions": "nude mice with implanted U2OS cells, 27 days", "procedure": "Female Balb/c nude mice (n = 6, 8 weeks old) were purchased from the Experimental Animal Center of Jilin University. The mice were bred under temperature-controlled conditions at 22.6 ± 2 °C with a 12-h day/light cycle. All applicable institutional and national guidelines for the care and use of animals were followed and the animal experiments were approved by the Animal Care and Use Committee of China Medical University. The heterograft mouse model was established by subcutaneous injection of 2 × 10^8 human OS (U2OS) cells suspended in 0.2 ml medium into the root of the right thigh. […]\nThe mice were sacrificed. […] Histological alterations were evaluated using a fluorescence microscope (Nikon Eclipse Ti, Optical Apparatus Co., Ardmore, USA) and a confocal microscope (Carl Zeiss, LSM 780).\nTissues were fixed in 4% paraformaldehyde. […] The average number of deposits per section was calculated using Image-Pro Plus 6.0 (Media Cybernetics, USA). […]"}, "[2]": {"experiment": "In vivo safety of melatonin in mice (body weight, HE of main organs)", "conditions": "tail vein, once every 2 days at 3 mg each time, 30 days", "procedure": "Tissues were fixed in 4% paraformaldehyde. After fixation, the samples were decalcified in 10% EDTA for 21 days before paraffin embedding and then sliced microtomically into a systematic series of 16 μm sections. Standard HE staining was performed and photographed. The average number of deposits per section was calculated using Image-Pro Plus 6.0 (Media Cybernetics, USA).\nThe safety of melatonin in mice was further studied by injecting melatonin into the tail vein of mice once every 2 days at 3 mg each time. After 30 days, the heart, liver, spleen, lung, kidney and other important organs were collected, sectioned and stained with HE for microscopy observation. […] Along with the increasing of the mass ratio of melatonin and SunP Gel G1, the LE and LC were increased. The LE reached peak at mass ratio of 1:2 and was decreased at mass ratio of 2:1. The mass ratio of 1:2 was selected for further experiments."}, "U2OS cells [3]": {"tested_on": "U2OS cells", "experiment": "CIC formation in U2OS cells (immunofluorescence, electron microscope)", "type": "cell-based, human", "conditions": "immunofluorescence and electron microscope", "procedure": "The cells were scrapped after treatment, collected by centrifugation, washed with PBS and fixed with 5% glutaraldehyde. After the cells were dehydrated, embedded, sectioned, stained, the mitophagosomes were observed by TEM. The quantity of CIC structures was calculated in 10 fields a view. After treatment, the cells were fixed with 4% paraformaldehyde at room temperature (23–25 °C) for 15 min. After PBS washing, cells were permeabilized with 0.2% Triton X-100 for 5 min. Sections were incubated in a blocking buffer containing 5% BSA for 30 min at room temperature (23–25 °C), followed by incubation with primary antibodies overnight at 4 °C. Secondary antibodies labeled with fluorescein (1:500, Abcam) were applied for 120 min. After incubating with 0.1% DAPI for 10 min and another wash with PBS, images were captured on a wide field fluorescent microscope (Olympus, Japan). Each experiment was repeated three times (total, n = 90 cells) and the fluorescence intensities were quantified with the ImageJ software. […] The cells were then washed with ice-cold PBS, and analyzed under a confocal laser scanning microscope (Olympus, Tokyo, Japan). […] Image-Pro Plus 6.0 (Media Cybernetics) was used for quantifying mitochondria."}, "[4]": {"tested_on": "PKA-Rho/ROCK signaling pathway", "experiment": "Western blot of PKA, p-PKA, Rho, ROCK in U2OS cells", "type": "cell-based, human", "procedure": "Cells or tissues were washed with ice-cold PBS and resuspended in lysis buffer (50 mM Tris–HCl, 150mM NaCl, 1% NP-40, 0.5% sodium deoxycholate, 0.1% sodium dodecyl sulfate) containing protease and phosphorylase inhibitor cocktails. After centrifugation at 12,000g for 30 min at 4 °C, the supernatant containing total protein was collected and quantified using the BCA protein concentration assay kit (Boster, Hubei, China). The samples were separated by SDS-PAGE and then transferred to polyvinylidene difluoride (PVDF) membranes (Millipore, Massachusetts, USA) (210 mA, between 30 and 120 min according to the molecular mass of the protein). After blocking for 2 h with 5% non-fat milk, the PVDF membranes were incubated with the appropriate primary antibodies (1:500 or 1:1000 dilution) at 4 °C overnight. The blots were then incubated with anti-mouse or anti-rabbit IgG conjugated to horseradish peroxidase (1:5000 dilution) for 1 h at room temperature (23–25 °C). Immunoreactive bands were visualized by the EC3 imaging system (UVP Inc., California, USA), and quantified with the ImageJ software (NIH, USA). The ratios between the proteins of interest and loading controls of the same sample were calculated as relative content and expressed graphically. The results were averaged from three independent experiments."}, "U2OS cells [5]": {"tested_on": "U2OS cells", "experiment": "Transwell (Boyden chamber) cell invasion and migration assays", "type": "cell-based, human", "conditions": "24 h", "procedure": "(§1) U2OS cells were divided into 8 groups: (1) Control group: without any treatment; (2) MT group: U2OS cells were added with 1 mM melatonin; (3) MT + ROCK activator group: U2OS cells were added with 1mM melatonin and 50 µM ROCK activator (pentanoic acid); (4) MT + ROCK inhibitor group: U2OS cells were added with 1mM melatonin and 50 µM ROCK inhibitor (ROCK inhibitor-2); (5) Mg–PCL group: U2OS cells were co-cultured with Mg–PCL scaffold; (6) Mg–PCL + MT group: U2OS cells were co-cultured with Mg–PCL scaffold loaded with melatonin; (7) Mg–PCL + MT + ROCK activator group: U2OS cells were co-cultured with Mg–PCL scaffold loaded with melatonin and added with 50 µM ROCK activator (pentanoic acid); and (8) Mg–PCL + MT + ROCK activator group: U2OS cells were co-cultured with Mg–PCL scaffold loaded with melatonin and added with 50 µM ROCK inhibitor (ROCK inhibitor-2).\nTo examine the effects of melatonin and CIC formation on the invasiveness of U2OS cells in vitro, we employed a modified Boyden chamber invasion assay with Matrigel coating. After treatment, the cells were seeded into the upper section of the Boyden chamber (Neuro Probe, Cabin John, MD, USA) at densities of 2.0 × 10^5/ml, and then incubated for 24 h at 37 °C. Finally, the cells were counted under a light microscope. Cell migration was measured by a cell invasion assay without Matrigel coating."}, "U2OS cells [6]": {"tested_on": "U2OS cells", "experiment": "Mitochondrial physiology of U2OS cells (fluorescence, Western blot, mtDNA, ATP, O2 consumption)", "type": "cell-based, human", "conditions": "24 h", "procedure": "as §1\nCells or tissues were washed with ice-cold PBS and resuspended in lysis buffer (50 mM Tris–HCl, 150mM NaCl, 1% NP-40, 0.5% sodium deoxycholate, 0.1% sodium dodecyl sulfate) containing protease and phosphorylase inhibitor cocktails. After centrifugation at 12,000g for 30 min at 4 °C, the supernatant containing total protein was collected and quantified using the BCA protein concentration assay kit (Boster, Hubei, China). […] Immunoreactive bands were visualized by the EC3 imaging system (UVP Inc., California, USA), and quantified with the ImageJ software (NIH, USA). The ratios between the proteins of interest and loading controls of the same sample were calculated as relative content and expressed graphically. […]\nAfter treatment, the cells were fixed with 4% paraformaldehyde at room temperature (23–25 °C) for 15 min. […] Each experiment was repeated three times (total, n = 90 cells) and the fluorescence intensities were quantified with the ImageJ software. […] The cells were then washed with ice-cold PBS, and analyzed under a confocal laser scanning microscope (Olympus, Tokyo, Japan). […] Image-Pro Plus 6.0 (Media Cybernetics) was used for quantifying mitochondria. […]"}, "U2OS cells [7]": {"tested_on": "U2OS cells", "experiment": "Wound-healing assay", "type": "cell-based, human", "procedure": "as §1\nThe U2OS cells were plated at 8.5 × 10^5/well on 6-well plates for 48 h and were wounded by scratching with a pipette tip. They were subsequently incubated with DMEM containing 0.5% FBS. After repeated treatment at 0, 12, 24 and 48 h, the cells were photographed using a phase contrast microscope (Olympus, Japan)."}}}
{"smiles": "COc1ccc2[nH]cc(CCNC(C)=O)c2c1", "note": "[melatonin, Melatonin]", "values": [{"measurement": "cumulative release rate", "setting": "[1]", "result": 96.3, "unit": "%"}, {"measurement": "cell apoptosis of xenograft tumors (TUNEL)", "setting": "human OS (U2OS) cells", "result": "promoted"}, {"measurement": "tumor weight of xenograft tumors", "setting": "human OS (U2OS) cells", "result": "effectively inhibited"}, {"measurement": "cell proliferation of xenograft tumors (Ki-67)", "setting": "human OS (U2OS) cells; melatonin 40 mg kg−1 day−1 i.p. or loaded scaffold, ROCK activator/inhibitor 10 mg kg−1 day−1 i.p.", "result": "effectively inhibited"}, {"measurement": "organ damage (HE staining of heart, liver, spleen, lung, kidney)", "setting": "[2]", "result": "no organ damage was observed"}, {"measurement": "weight of mice", "setting": "[2]", "result": "stable without notable changes"}, {"measurement": "number of CIC structure", "setting": "U2OS cells [3]", "result": "significantly reduced"}, {"measurement": "PKA phosphorylation (Western blot)", "setting": "[4]", "result": "promote PKA phosphorylation"}, {"measurement": "Rho and ROCK expressions (Western blot)", "setting": "[4]", "result": "reduced"}, {"measurement": "number of invaded and migrated cells (Transwell)", "setting": "U2OS cells [5]", "result": "significantly lower"}, {"measurement": "relative fluorescence of mitochondria", "setting": "U2OS cells [6]; 1 mM melatonin, 50 µM ROCK activator/inhibitor", "result": "reduced"}, {"measurement": "expression of mitochondrial biogenesis-related proteins PGC1α, NRF1 and TFAM", "setting": "U2OS cells [6]; Western blot", "result": "downregulated"}, {"measurement": "expression of mitochondrial biomarkers TOM20, COX-4l1 and ATP Synβ", "setting": "U2OS cells [6]; Western blot", "result": "reduced"}, {"measurement": "cell migrated area relative to control (wound healing)", "setting": "U2OS cells [7]; U2OS cells", "result": "significantly decreased"}, {"measurement": "scratch width (wound healing)", "setting": "U2OS cells [7]; U2OS cells, 0, 12, 24 and 48 h", "result": "wider"}]}
